Test results as given in US11427548B2 (Arvinas Operations, Inc., priority 2015, dated 2022).
Like-named read-outs stand apart in the source and are kept apart here.

Biological target: T1, Androgen Receptor (Homo sapiens, UniProt P10275)
T1 construct: endogenous in cells; host or cells: VCaP cells
T1 sequence (P10275 1-920): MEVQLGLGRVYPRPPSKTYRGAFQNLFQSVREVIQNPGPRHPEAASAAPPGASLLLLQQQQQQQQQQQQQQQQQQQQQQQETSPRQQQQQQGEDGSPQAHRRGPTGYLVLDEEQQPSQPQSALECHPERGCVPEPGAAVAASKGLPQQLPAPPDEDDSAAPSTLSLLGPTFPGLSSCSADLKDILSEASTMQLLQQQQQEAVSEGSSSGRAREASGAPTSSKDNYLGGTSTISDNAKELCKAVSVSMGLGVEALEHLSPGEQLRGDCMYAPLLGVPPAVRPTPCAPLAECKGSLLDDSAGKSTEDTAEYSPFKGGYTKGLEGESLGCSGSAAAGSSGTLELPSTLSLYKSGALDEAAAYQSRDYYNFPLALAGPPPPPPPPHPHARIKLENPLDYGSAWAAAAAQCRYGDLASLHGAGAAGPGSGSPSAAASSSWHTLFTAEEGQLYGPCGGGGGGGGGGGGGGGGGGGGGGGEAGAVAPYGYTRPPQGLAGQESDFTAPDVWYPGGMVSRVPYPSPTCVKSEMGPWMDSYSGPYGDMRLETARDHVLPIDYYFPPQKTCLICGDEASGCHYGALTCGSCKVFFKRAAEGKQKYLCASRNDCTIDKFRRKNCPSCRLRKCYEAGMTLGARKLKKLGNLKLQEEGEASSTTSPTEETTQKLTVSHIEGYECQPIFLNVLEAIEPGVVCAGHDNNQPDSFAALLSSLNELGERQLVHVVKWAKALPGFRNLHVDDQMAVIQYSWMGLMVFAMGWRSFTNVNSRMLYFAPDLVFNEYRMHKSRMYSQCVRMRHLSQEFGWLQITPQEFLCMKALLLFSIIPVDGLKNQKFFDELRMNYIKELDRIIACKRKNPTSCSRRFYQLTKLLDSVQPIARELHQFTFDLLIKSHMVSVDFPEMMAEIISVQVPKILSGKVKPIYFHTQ
Assay: Androgen Receptor ELISA assay (PathScan AR ELISA) in VCaP cells: AR degradation, Dmax and DC50
Assay type: cell-based
Method in brief: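 VCaP cells in phenol red-free RPMI with 5% charcoal-stripped FBS were grown at least 3 days, then given compound as 7 half-log doses in 0.1% DMSO with 0.1 nM R1881 for 24 h. Lysates went into a sandwich AR ELISA with TMB read at 450 nm.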

[1] = VCaP cells; Table 36; read-out: VCaP DC50
[2] = VCaP, VCaP cells; Table 36; read-out: VCaP Dmax (%)
[3] = VCaP, read-out: VCaP Dmax (%), VCaP cells; Table 36

Row | DC50 [1] [nM] | Dmax [2] [%] | Structure (SMILES) | other results
1 | < 50 | 51 to 70 | Cc1ncsc1-c1ccc([C@H](C)NC(=O)C2C[C@@H](O)CN2C(=O)[C@@H](NC(=O)CN2C[C@@H]3C[C@H]2CN3CCCc2ccc(C(=O)N[C@H]3C(C)(C)[C@H](Oc4ccc(C#N)c(Cl)c4)C3(C)C)cc2)C(C)(C)C)cc1 (stereo partly drawn) [Example 801, (2S,4R)-1-((S)-2-(2-((1S,4S)-5-(3-(4-(((1r,3S)-3-(3-chloro-4-cyanophenoxy)-2,2,4,4-tetramethylcyclobutyl)carbamoyl)phenyl)propyl)-2,5-diazabicyclo[2.2.1]heptan-2-yl)acetamido)-3,3-dimethylbutanoyl)-4-hydroxy-N-((S)-1-(4-(4-methylthiazol-5-yl)phenyl)ethyl)pyrrolidine-2-carboxamide] | –
2 | > 501 | 26 to 50 | Cc1ncsc1-c1ccc([C@H](C)NC(=O)C2C[C@@H](O)CN2C(=O)[C@@H](NC(=O)CCCC2(N3CCN(c4ccc(C(=O)N[C@H]5C(C)(C)[C@H](Oc6ccc(C#N)c(Cl)c6)C5(C)C)cn4)CC3)COC2)C(C)(C)C)cc1 (stereo partly drawn) [Example 803, N-((1r,3r)-3-(3-chloro-4-cyanophenoxy)-2,2,4,4-tetramethylcyclobutyl)-6-(4-(3-(4-(((S)-1-((2S,4R)-4-hydroxy-2-(((S)-1-(4-(4-methylthiazol-5-yl)phenyl)ethyl)carbamoyl)pyrrolidin-1-yl)-3,3-dimethyl-1-oxobutan-2-yl)amino)-4-oxobutyl)oxetan-3-yl)piperazin-1-yl)nicotinamide] | –
3 | < 50 | – | Cc1ncsc1-c1ccc([C@H](C)NC(=O)[C@@H]2C[C@@H](O)CN2C(=O)[C@@H](NC(=O)CN2CCN(CCCCN3CCN(c4ccc(C(=O)N[C@H]5C(C)(C)[C@H](Oc6ccc(C#N)c(Cl)c6)C5(C)C)cn4)CC3)CC2)C(C)(C)C)cc1 [Example 804, N-((1r,3r)-3-(3-chloro-4-cyanophenoxy)-2,2,4,4-tetramethylcyclobutyl)-6-(4-(4-(4-(2-(((S)-1-((2S,4R)-4-hydroxy-2-(((S)-1-(4-(4-methylthiazol-5-yl)phenyl)ethyl)carbamoyl)pyrrolidin-1-yl)-3,3-dimethyl-1-oxobutan-2-yl)amino)-2-oxoethyl)piperazin-1-yl)butyl)piperazin-1-yl)nicotinamide] | Dmax [3]: 51 to 70%
4 | > 501 | – | Cc1ncsc1-c1ccc([C@H](C)NC(=O)[C@@H]2C[C@@H](O)CN2C(=O)[C@@H](NC(=O)CN2CCN(CCOCCN3CCN(c4ccc(C(=O)N[C@H]5C(C)(C)[C@H](Oc6ccc(C#N)c(Cl)c6)C5(C)C)cn4)CC3)CC2)C(C)(C)C)cc1 [Example 805, N-((1r,3r)-3-(3-chloro-4-cyanophenoxy)-2,2,4,4-tetramethylcyclobutyl)-6-(4-(2-(2-(4-(2-(((S)-1-((2S,4R)-4-hydroxy-2-(((S)-1-(4-(4-methylthiazol-5-yl)phenyl)ethyl)carbamoyl)pyrrolidin-1-yl)-3,3-dimethyl-1-oxobutan-2-yl)amino)-2-oxoethyl)piperazin-1-yl)ethoxy)ethyl)piperazin-1-yl)nicotinamide] | Dmax [3]: < 25%
5 | < 50 | > 71 | Cc1ncsc1-c1ccc([C@H](C)NC(=O)C2C[C@@H](O)CN2C(=O)C(NC(=O)CN2CCN(CCCCc3ccc(C(=O)N[C@H]4C(C)(C)[C@H](Oc5ccc(C#N)c(Cl)c5)C4(C)C)cc3)CC2)C(C)(C)C)cc1 (stereo partly drawn) [Example 806, (2S,4R)-1-((S)-2-(2-(4-(4-(4-(((1r,3r)-3-(3-chloro-4-cyanophenoxy)-2,2,4,4-tetramethylcyclobutyl)carbamoyl)phenyl)butyl)piperazin-1-yl)acetamido)-3,3-dimethylbutanoyl)-4-hydroxy-N-((S)-1-(4-(4-methylthiazol-5-yl)phenyl)ethyl)pyrrolidine-2-carboxamide] | –
6 | < 50 | – | Cc1ncsc1-c1ccc([C@H](C)NC(=O)C2C[C@@H](O)CN2C(=O)[C@@H](NC(=O)CN2C[C@@H]3C[C@H]2CN3CCCc2ccc(C(=O)N[C@H]3C(C)(C)[C@H](Oc4ccc(C#N)c(Cl)c4)C3(C)C)cc2)C(C)(C)C)cc1 (stereo partly drawn) [Example 807, (2S,4R)-1-((S)-2-(2-((1R,4R)-5-(3-(4-(((1r,3R)-3-(3-chloro-4-cyanophenoxy)-2,2,4,4-tetramethylcyclobutyl)carbamoyl)phenyl)propyl)-2,5-diazabicyclo[2.2.1]heptan-2-yl)acetamido)-3,3-dimethylbutanoyl)-4-hydroxy-N-((S)-1-(4-(4-methylthiazol-5-yl)phenyl)ethyl)pyrrolidine-2-carboxamide] | –
7 | – | – | Cc1ncsc1-c1ccc([C@H](C)NC(=O)[C@@H]2C[C@@H](O)CN2C(=O)[C@@H](NC(=O)CN2CC3CCC(C2)N3CCCc2ccc(C(=O)NC3C(C)(C)C(Oc4ccc(C#N)c(Cl)c4)C3(C)C)cc2)C(C)(C)C)cc1 (stereo partly drawn) [Example 808, (2S,4R)-1-((2S)-2-(2-(8-(3-(4-(((1r,3r)-3-(3-chloro-4-cyanophenoxy)-2,2,4,4-tetramethylcyclobutyl)carbamoyl)phenyl)propyl)-3,8-diazabicyclo[3.2.1]octan-3-yl)acetamido)-3,3-dimethylbutanoyl)-4-hydroxy-N-((S)-1-(4-(4-methylthiazol-5-yl)phenyl)ethyl)pyrrolidine-2-carboxamide] | Dmax (VCaP, read-out: VCaP Dmax (%)): 26 to 50%; DC50 (read-out: VCaP DC50; VCaP cells; Table 36): < 50 nM
8 | < 50 | > 71 | Cc1ncsc1-c1ccc([C@H](CO)NC(=O)[C@@H]2C[C@@H](O)CN2C(=O)[C@@H](NC(=O)COCCN2CCN(c3ccc(C(=O)N[C@H]4C(C)(C)[C@H](Oc5ccc(C#N)c(Cl)c5)C4(C)C)cn3)CC2)C(C)(C)C)cc1 [Example 812, N-((1r,3r)-3-(3-chloro-4-cyanophenoxy)-2,2,4,4-tetramethylcyclobutyl)-6-(4-(2-(2-(((S)-1-((2S, 4R)-4-hydroxy-2-(((R)-2-hydroxy-1-(4-(4-methylthiazol-5-yl)phenyl)ethyl)carbamoyl)pyrrolidin-1-yl)-3,3-dimethyl-1-oxobutan-2-yl)amino)-2-oxoethoxy)ethyl)piperazin-1-yl) nicotinamide] | –

Row | Structure (SMILES) | DC50 [1] [nM] | Dmax [2] [%] | other results
9 | Cc1ncsc1-c1ccc([C@H](C)NC(=O)[C@@H]2C[C@@H](O)CN2C(=O)[C@@H](NC(=O)CN2C3CCC2CN(CCCc2ccc(C(=O)NC4C(C)(C)C(Oc5ccc(C#N)c(Cl)c5)C4(C)C)cc2)C3)C(C)(C)C)cc1 (stereo partly drawn) [Example 802, (2S,4R)-1-((2S)-2-(2-(3-(3-(4-(((1r,3r)-3-(3-chloro-4-cyanophenoxy)-2,2,4,4-tetramethylcyclobutyl)carbamoyl)phenyl)propyl)-3,8-diazabicyclo[3.2.1]octan-8-yl)acetamido)-3,3-dimethylbutanoyl)-4-hydroxy-N-((S)-1-(4-(4-methylthiazol-5-yl)phenyl)ethyl)pyrrolidine-2-carboxamide] | < 50 | – | VCaP Dmax (%) (VCaP cells; Table 36): +++ (51% ≤ Dmax ≤ 70%)
10 | Cc1ncsc1-c1ccc([C@H](C)NC(=O)[C@@H]2C[C@@H](O)CN2C(=O)[C@@H](NC(=O)CN2CCN(C3CC4(C3)CN(c3ccc(C(=O)N[C@H]5C(C)(C)[C@H](Oc6ccc(C#N)c(Cl)c6)C5(C)C)cn3)C4)CC2)C(C)(C)C)cc1 [Example 809, N-((1r,3r)-3-(3-chloro-4-cyanophenoxy)-2,2,4,4-tetramethylcyclobutyl)-6-(6-(4-(2-(((S)-1-((2S, 4R)-4-hydroxy-2-(((S)-1-(4-(4-methylthiazol-5-yl)phenyl)ethyl)carbamoyl)pyrrolidin-1-yl)-3,3-dimethyl-1-oxobutan-2-yl)amino)-2-oxoethyl)piperazin-1-yl)-2-azaspiro[3.3]heptan-2-yl)n icotinamide] | < 50 | – | Dmax (VCaP, read-out: VCaP Dmax (%)): > 71%
11 | Cc1ncsc1-c1ccc([C@H](C)NC(=O)C2C[C@@H](O)CN2C(=O)C(c2cc(OCCN(C)[C@H](C(=O)NC(C(=O)N3CCN(c4ccc(C(=O)NC5C(C)(C)C(Oc6ccc(C#N)c(Cl)c6)C5(C)C)cc4)CC3)C(C)C)C(C)C)no2)C(C)C)cc1 (stereo partly drawn) [Example 810, (2S,4R)-1-(2-(3-(2-(((S)-1-(((S)-1-(4-(4-(((1r,3S)-3-(3-chloro-4-cyanophenoxy)-2,2,4,4-tetramethylcyclobutyl)carbamoyl)phenyl)piperazin-1-yl)-3-methyl-1-oxobutan-2-yl)amino)-3-methyl-1-oxobutan-2-yl) (methyl)amino)ethoxy)isoxazol-5-yl)-3-methylbutanoyl)-4-hydroxy-N-((S)-1-(4-(4-methylthiazol-5-yl)phenyl)ethyl) pyrrolidine-2-carboxamide] | < 50 | – | Dmax (VCaP, read-out: VCaP Dmax (%)): > 71%
